Assay results reported in ChEMBL document CHEMBL1157539, “Thousands of chemical starting points for antimalarial lead identification” (Nature, 2010).

tested on: Plasmodium falciparum; test: GSK_TCMDC: Inhibition of Plasmodium falciparum 3D7 in whole erythrocytes, using parasite LDH activity as an index of growth.; assay type: functional, organism-based; settings: Plasmodium falciparum, 3D7

Row | SMILES | XC50 [nM]
1 | CCc1c(C)nc2nc(Cc3cccc(F)c3)nn2c1N1CCN(c2ccccn2)CC1 | 750
2 | COc1ccccc1CNc1ccnc(NCCc2cccc(C(F)(F)F)c2)n1 | 925
3 | O=C(Nc1cccc(CN2CCCN(Cc3ccc(O)cc3)CC2)c1)c1cccc(Cl)c1 | 908
4 | CCC[C@@H]1CCN[C@H]([C@H](O)c2ccnc3ccc(OC)cc23)C1 | 726
5 | Cc1nnc2sc(-c3cccc(NC(=O)c4ccc(N5CCCCC5)c([N+](=O)[O-])c4)c3)nn12 | 1300
6 | O=C(Nc1cccc(-c2cccc(-c3nc4ccccc4[nH]3)c2)c1)c1ccncc1 | 479
7 | O=C(NC1CC1)c1cnc(N2CCCC(c3ccccc3)C2)c(Cl)c1 (stereo not drawn) | 797
8 | COc1cc(CCON2C(N)=NC(N)=NC2(C)C)cc(OC)c1OC | 49.3
9 | CC1(C)NC(N)=NC(=N)N1OCCc1cccc2ccccc12 | 3.2
10 | COc1cc2nc(N(C)C3CCN(Cc4ccccc4)CC3)nc(N)c2cc1OC | 334
11 | Cc1cc(NC(=O)Nc2ccc(I)c(OCCN(C)C)c2)ccc1Br | 625
12 | O=C1Nc2cccc3c2C1(CCCCN1CCC(c2c(-c4ccc(F)cc4)[nH]c4ccccc24)CC1)CCC3 (stereo not drawn) | 1190
13 | CCCCCC(C)N/C(=N/c1ccccc1Br)Nc1ccc(C#N)cc1O (stereo not drawn) | 751
14 | CC(C)(C(=O)Nc1ccc(C2CCC(NCC3CC3)CC2)c(Cl)c1)c1ccc(C(F)(F)F)cc1 (stereo not drawn) | 965
15 | CC(C)COc1ccc(Cl)cc1Cc1ccc(-c2nc3cc(CCN(C)C)ccc3[nH]2)o1 | 982
16 | CC(C)Oc1ccc2c(c1)OC(c1ccccc1)(C(F)(F)F)NC2=O (stereo not drawn) | 136
17 | O=[N+]([O-])c1cnc(Nc2ccccc2O)nc1Nc1ccccc1O | 897
18 | Fc1ccc2[nH]c3c(NCCN4CCCCC4)ncnc3c2c1 | 834
19 | CC(C)(C)c1ccc(C(=O)Nc2ccc(NC(=O)c3ccc([N+](=O)[O-])o3)cc2)cc1 | 844
20 | Cc1cc(O)c(CN2CCN(Cc3cccs3)CC2)cc1C(C)C | 716
21 | CN(C)CCCNCc1ccc(-c2ccc(CNCCc3ccccc3)cc2)cc1 | 994
22 | Cc1c(CNCCCNc2cc(=O)c3ccccc3[nH]2)sc(-c2ccco2)c1Br | 1020
23 | CC(=O)Nc1ccc(C(=O)Nc2cccc(-c3cccc(-c4nc5ccccc5[nH]4)c3)c2)cn1 | 204
24 | O=c1nc(NCCCCCN2CCC(c3c[nH]c4ccccc34)CC2)[nH]cc1Cc1ccc(Cl)c(Cl)c1 | 969

Row | SMILES | XC50 [nM]
25 | CC(CN(C)C)C(=O)Nc1cccc(-c2ccc(-c3nc4ccccc4[nH]3)cc2)c1 (stereo not drawn) | 706
26 | CC(C)(C)NCCN(Cc1ccc(-c2ccc(C(F)(F)F)cc2)cc1)C(=O)Cn1c(CCc2cccc(F)c2F)nc(=O)c2c1CCC2 | 948
27 | COc1cccc(-c2nn(C)c3sc(C(=O)NCCN4CCN(c5ccccc5F)CC4)cc23)c1 | 955
28 | COc1ccc(Cc2nc3c(n2C(C)=O)SC(c2ccc(Cl)c(Cl)c2)=NN3C(C)=O)cc1 | 809
29 | COc1ccccc1C1CCN(C2CCC(NC(=O)c3cc4ccccc4[nH]3)CC2)CC1 (stereo not drawn) | 1210
30 | CCc1n[nH]c(C(=O)NC2CCN(CC3(c4ccc(OC)cc4)CCCCC3)CC2)c1C | 892
31 | CCCC1(NC[C@@H](O)[C@H](Cc2ccccc2)NC(=O)c2cc(NCC)cc(N3CCCCS3(=O)=O)c2)CCC1 | 720
32 | CNCCNCc1cccc(-c2cccc(-c3nc4cc(F)ccc4[nH]3)c2)c1 | 670
33 | CCCNCc1ccc(-c2ccc(CN(C(=O)c3nn(-c4ccccc4)nc3C)C3CCOCC3)cc2)nc1 | 144
34 | CC(c1cccc(Nc2nccc(-c3c(-c4cccc(NC(=O)c5c(F)cccc5F)c4)nn4ccccc34)n2)c1)S(C)(=O)=O (stereo not drawn) | 57.5
35 | COc1ccc2nccc([C@@H](O)CN3CCC(NCc4nc5ccccc5[nH]4)CC3)c2c1 | 1070
36 | CCCOc1ccc(CCNCCCCNCCc2ccc(OCCC)c3ccccc23)c2ccccc12 | 917
37 | COc1ccc(Nc2nc(NC3CCCC3)cc(-c3ccc(OC)cc3)n2)cc1 | 1030
38 | O=C(N[C@@H](CC1CCCCC1)C(=O)NC1CCCCC1)c1ccc(O)c(-c2cccc(C(F)(F)F)c2)c1 | 747
39 | CCN(CC)CCN(Cc1ccc(-c2ccc(C(F)(F)F)cc2)nc1)C(=O)Cn1cc(Cc2cnn(C)c2)c(=O)n2nc(-c3ccccc3)cc12 | 991
40 | CN(C)c1cc(NC(=O)Nc2ccccc2)c2ccccc2n1 | 405
41 | COc1ccc2nccc([C@@H](O)CN3C4CCC3CC(NCc3ccc5c(n3)NC(=O)CS5)C4)c2n1 (stereo partly drawn) | 934
42 | CN1CCN(CCCN(Cc2csc(-c3ccc(CNCc4ccccc4)cc3)n2)S(=O)(=O)c2cccc3cccnc23)CC1 | 1410
43 | Cc1nc2nc(N)nc(N)c2c(C)c1Cc1cccc(F)c1 | 341
44 | COc1ccc2nccc([C@@H](O)CN3CCC(NCCOc4cc(C(F)(F)F)ccc4F)CC3)c2c1 | 108
45 | COc1cc2c(Nc3ccc(NC(=O)c4ccccc4)cc3)ncnc2cc1OCCCN1CCOCC1 | 648
46 | Cc1ccc(C)c(NC(=O)Nc2ccc(Nc3nc(C)cc(N4CCOCC4)n3)cc2)c1 | 978
47 | COc1ccc(NC(=O)/C=C/c2ccccc2Cl)cc1OCCN1CCC(N(C)C)CC1 | 969
48 | O=C(NC1CCN(Cc2ccccc2)CC1)c1ccc(-c2nc3cc4ccccc4cc3[nH]2)s1 | 601
